PubChem BioAssay AID1322 (NMMLSC, 2008)
Activity calls are given as the source filed them. The rule behind the calls is not given here.

What follows are compounds tested against Bcl-2-like protein 1 (Homo sapiens) (UniProt Q07817) (assay: Bim-Bcl-XL interaction inhibitors, potency, dose response, biochemical, multiplexed, bead flow cytometry, human Bcl-XL (AID 1322; for inhibition: test concentration not given here)). Conditions: Bead-based flow cytometry, Bim peptide-Bcl-XL binding, MCF.
Bcl-2-like protein 1 (Homo sapiens), sequence (Q07817 whole entry, looked up): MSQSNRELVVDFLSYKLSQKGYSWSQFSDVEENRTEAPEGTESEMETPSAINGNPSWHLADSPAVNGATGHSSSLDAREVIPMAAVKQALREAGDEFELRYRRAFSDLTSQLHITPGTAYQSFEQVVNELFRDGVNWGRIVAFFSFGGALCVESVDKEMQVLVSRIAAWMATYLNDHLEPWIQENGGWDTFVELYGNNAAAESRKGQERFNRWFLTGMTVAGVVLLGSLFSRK

Row | Structure (SMILES) | outcome
1 | CSc1ccccc1NC(=O)CN(C)CC(=O)Nc1ccc(N2CCOCC2)cc1 | inactive
2 | COc1ccc(OC)c(NC(=O)CCCN2C(=S)NC(C)(C)CC2C)c1 (stereo unspecified) | inactive
3 | O=C(O)/C=C/C(=O)NNC(=O)c1ccc(Br)cc1 | inactive
4 | COC(=O)c1ccc(/C=N/NC(=O)CC(=O)NCc2cccnc2)cc1 | inactive
5 | O=C1Nc2ccc([N+](=O)[O-])cc2OC1CCN1CCN(Cc2ccc3c(c2)OCO3)CC1 (stereo unspecified) | inactive
6 | Cc1ccc(Nc2nc(C)cs2)cc1 | inactive
7 | CCOC(=O)N1CCC(c2cc(=O)n(-c3ccccc3)[nH]2)CC1 | inactive
8 | Fc1cccc(Nc2nc(-c3ccncc3)nc3ccccc23)c1 | inactive
9 | O=C(NNC(=O)C12CC3CC(CC(C3)C1)C2)c1ccco1 | inactive
10 | O=C(c1cnccn1)N(Cc1cccs1)C1(C(=O)NC2CCCCC2)CCCCC1 | inactive
11 | CS(=O)(=O)NN1C(=O)c2ccccc2NC1c1ccccc1 (stereo unspecified) | inactive
12 | CCOC(=O)CSC1=NC(=O)/C(=C/c2ccc(Br)cc2)S1 | inactive
13 | CCOC(=O)c1nc(Nc2ccc(N3CCC(C)CC3)cc2)c2ccccc2n1 | inactive
14 | CCOC(=O)c1nn(-c2ccccc2)c(C#N)c1N | inactive
15 | Cn1c(CCNC(=O)C2CCCCC2)nc2cc(NC(=O)c3cccs3)ccc21 | inactive
16 | COC(=O)CSc1nccc(-c2cccs2)n1 | inactive
17 | COCCN=c1scc(-c2ccco2)n1/N=C/c1ccc(O)c(O)c1O | inactive

Same assay, conditions: Bead-based flow cytometry, Bim peptide-Bcl-XL binding, MCF

Row | Structure (SMILES) | inhibition
18 | COc1ccccc1-n1c(-c2ccccc2)c[nH]c1=S | inactive
19 | CN=c1scc(C)n1/N=C/c1ccc(O)c(O)c1O | inactive
20 | CC(=O)OCCNc1cc(Sc2nc3ccccc3[nH]2)c2nonc2c1[N+](=O)[O-] | inactive
21 | COc1ccc(C(=O)Nc2ccc(C(=O)OCC(=O)c3cccc4ccccc34)cc2)cc1 | inactive
22 | COc1cc(C2Nc3cccc4cccc(c34)N2)cc(OC)c1O | inactive
23 | COc1ccc(NS(=O)(=O)c2cc(NC(=O)c3ccc(C)o3)ccc2N2CCCCC2)cc1 | inactive
24 | CC(C)(C)C(=O)NC(NC(=S)Nc1ccc(S(N)(=O)=O)cc1)C(Cl)(Cl)Cl (stereo unspecified) | inactive
25 | Cc1ccc(O)c(NC2=C(Cl)C(=O)N(Cc3ccccc3)C2=O)c1 | inactive
26 | Cc1cccc(-n2c(-c3ccncc3)n[nH]c2=S)c1 | inactive
27 | COc1ccc(-n2c(NC(=O)c3ccco3)c(C#N)c3nc4ccccc4nc32)cc1 | inactive
28 | Cc1ccc(-c2cc(-c3ccc(F)cc3)nc(N)c2C#N)o1 | inactive
29 | COc1ccc(NC(=O)c2sccc2SCc2cccc(C(F)(F)F)c2)cc1 | inactive
30 | CN1C(=O)/C(=C/c2ccc(-c3ccccc3[N+](=O)[O-])o2)SC1=Nc1ccc(Cl)c(C(=O)O)c1 | inactive
31 | O=C1c2ccccc2C(=O)N1CN(C(=O)COc1ccc(Cl)cc1Cl)c1cccc(F)c1 | inactive
32 | Cc1ccc(-c2cc(C(=O)Nc3nccs3)c3ccccc3n2)o1 | inactive
33 | CCOC(=O)C1(CC/C(C)=N\NC(N)=O)CC(C)(C)OC1=O (stereo unspecified) | inactive
34 | CCN(C(=O)COC(=O)c1cc(-c2ccc(C)o2)nc2ccccc12)C1CCS(=O)(=O)C1 (stereo unspecified) | inactive
35 | CCN(CC)c1ccc(Nc2nc(N3CCOCC3)c3ccccc3n2)cc1 | inactive
36 | CCOC(=O)c1cc2c(=O)n3cccc(C)c3nc2n(Cc2ccco2)c1=NC(=O)c1ccccc1 | inactive
37 | COc1cccc(C(=O)/C=C/Nc2ccc(S(=O)(=O)Nc3onc(C)c3C)cc2)c1 | inactive

Row | Structure (SMILES) | inhibition
38 | Cc1occc1C(=O)NNC(=S)NCc1ccccc1 | inactive
39 | Cc1cc(-c2csc(N)n2)c(C)n1CCC(C)C | inactive
40 | O=C(Cc1ccccc1)OCCNC(=O)c1cccnc1 | inactive
41 | Cc1ccc(S(=O)(=O)N2CCCCC2)cc1NC(=O)COC(=O)c1ccccc1F | inactive
42 | O=C(Cc1ccc(-c2ccccc2)cc1)NC1CCCC1 | inactive
43 | Cc1c(Cc2ccccc2)sc(N)c1C(N)=O | inactive
44 | Nc1ccc(N2CCCCCC2)cc1 | inactive
45 | CN(Cc1ccccc1)c1nc2c(c(=O)[nH]c(=O)n2C)n1C | inactive
46 | Cc1cccc(-n2c(O)c(/C=N/N3CCOCC3)c(=O)[nH]c2=S)c1 | inactive
47 | CNc1ccccc(C(=O)/C=C/c2ccccc2OC)c1=O | inactive
48 | COc1ccccc1NC(=O)CSc1ncn(-c2ccccc2)n1 | inactive
49 | Cc1cccn2c(=O)c3cc(C(N)=S)c(=N)n(CCCN4CCOCC4)c3nc12 | inactive
50 | O=C(Nc1ccccc1N1CCOCC1)c1cccs1 | inactive
51 | CCCn1c(SCC(=O)Nc2ccccc2-c2ccccc2)nnc1-c1ccoc1C | inactive
52 | CCOc1cc(CNc2ccc(N(C)C)cc2)cc(Br)c1OCC(=O)NC(C)(C)C | inactive
53 | Cc1ccccc1/C=N/Nc1ccnc2cc(Cl)ccc12 | inactive
54 | N#Cc1cccc(N=c2ssnc2Cl)c1 | inactive
55 | COC(=O)c1ccc(-n2nnnc2SCC(=O)Nc2cc(OC)ccc2OC)cc1 | inactive
56 | Cc1ccc(-c2n[nH]c(=S)n2-c2ccccc2)cc1 | inactive
57 | Cc1ccc(-c2nc3c(c(=O)[nH]c(=O)n3Cc3ccccc3)n2C)o1 | inactive

Row | Structure (SMILES) | inhibition
58 | O=C(COc1ccc(Br)cc1CNC1CCCCC1)NCCc1ccccc1 | inactive
59 | CCN(CC)c1ccc(NC(=O)COc2ccccc2C)cc1S(=O)(=O)Nc1ccccc1OC | inactive
60 | Cc1nn(-c2ccc(Cl)cc2)c(Cl)c1/C=C(\C#N)C(N)=O | inactive
61 | COc1cc2[nH]c(=S)nc(NCCCOC(C)C)c2cc1OC | inactive
62 | CCOc1cccc(CNc2ccc(O)cc2)c1OCc1ccccc1Cl | inactive
63 | c1ccc(-c2nnc(OCCN3CCOCC3)c3ccccc23)cc1 | inactive
64 | CCOc1ccccc1C(=O)NC1CC2CCCC(C1)N2C1CC1 (stereo unspecified) | inactive
65 | COc1cc(CNc2ccc3[nH]c(=O)[nH]c3c2)cc(Br)c1OCC(=O)NC(C)(C)C | inactive
66 | CNC(=O)/C(C#N)=C/c1c(N(Cc2ccccc2)Cc2ccccc2)nc2c(C)cccn2c1=O | inactive
67 | Cc1sc2nc(C(C)C)nc(SCC(=O)N3c4ccccc4CC3C)c2c1C (stereo unspecified) | inactive
68 | Cc1ccc(NC2=C(NC(=O)c3ccccc3)C(=O)c3ccccc3C2=O)cc1Cl | inactive
69 | CCCCN(C(=O)CCC(=O)Nc1cc(C)on1)C(C(=O)NC(C)(C)C)c1cccc(OC)c1OC (stereo unspecified) | inactive
70 | O=C(CSc1nnc(Cc2ccccc2)o1)NCc1ccco1 | inactive
71 | Cc1ccc(NC(=O)CC2S/C(=N/N=C/c3c[nH]c4ccccc34)NC2=O)cc1 (stereo unspecified) | inactive
72 | CCCCOC(=O)c1nc(Cl)c(Cl)c(N)c1Cl | inactive
73 | O=C(OCc1cnc(Cl)s1)c1cccc(Cl)c1Cl | inactive
74 | CN=c1scc(-c2cccs2)n1/N=C/c1ccc(O)c(O)c1O | inactive
75 | O=C(Nc1ccncc1)c1cc2ccccc2o1 | inactive
76 | Cc1ccc(-n2[nH]c(C)c(/C=N/Nc3ccc([N+](=O)[O-])cc3[N+](=O)[O-])c2=O)cc1C | inactive
